The source of these data is patent US8017602B2, “N-(2-(2-(5-hydroxy-3-oxo-3,4-dihydro-2H-benzo[b][1,4]oxazin-8-yl)ethylamino)ethyl)-3-(phenethoxy)propanamide derivatives, processes for their preparation, pharmaceutical compositions containing them and their use in therapy” (AstraZeneca AB, priority 2008, dated 2011).

Assay [1] concerns the target T1, recombinant human α1D receptor (Homo sapiens, UniProt P25100).
T1 construct: expressed in transfected cells; host or cells: HEK293
T1 sequence (P25100 1-572): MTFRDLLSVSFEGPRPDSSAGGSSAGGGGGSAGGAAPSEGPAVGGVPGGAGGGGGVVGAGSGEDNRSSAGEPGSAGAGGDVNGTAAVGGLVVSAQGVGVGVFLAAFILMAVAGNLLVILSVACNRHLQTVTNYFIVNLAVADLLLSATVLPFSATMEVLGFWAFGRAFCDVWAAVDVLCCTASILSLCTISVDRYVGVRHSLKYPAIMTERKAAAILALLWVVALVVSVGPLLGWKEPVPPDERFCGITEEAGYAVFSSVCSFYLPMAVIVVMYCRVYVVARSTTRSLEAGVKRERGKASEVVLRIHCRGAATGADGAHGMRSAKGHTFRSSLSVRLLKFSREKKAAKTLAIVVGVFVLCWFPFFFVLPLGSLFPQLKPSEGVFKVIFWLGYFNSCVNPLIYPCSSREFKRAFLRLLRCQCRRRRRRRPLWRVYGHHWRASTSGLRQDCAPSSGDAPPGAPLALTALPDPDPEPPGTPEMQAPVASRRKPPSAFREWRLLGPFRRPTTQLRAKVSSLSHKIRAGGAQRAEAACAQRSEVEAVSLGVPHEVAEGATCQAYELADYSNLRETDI
The assay can be described thus: Adrenergic α1D selectivity binding assay ([3H]-prazosin). The note with it: inhibition of [3H]-prazosin binding, HEK293 membranes, read-out: α1 bind pIC50 (converted). Summed up: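 HEK293 membranes expressing human α1D were incubated 2 h at room temperature with 0.3 nM [3H]-prazosin in HEPES/EDTA pH 7.4 buffer. Nonspecific binding was defined with 10 μM BMY7378. After filtration and scintillation counting, pIC50 was derived by four-parameter logistic fit.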

The target of assay [2] is T2, Adrenergic β2 (Homo sapiens, UniProt P07550).
T2 construct: Adherent H292 cells were removed from tissue culture flasks; endogenous in cells; host or cells: H292 cells
T2 sequence (P07550 whole entry): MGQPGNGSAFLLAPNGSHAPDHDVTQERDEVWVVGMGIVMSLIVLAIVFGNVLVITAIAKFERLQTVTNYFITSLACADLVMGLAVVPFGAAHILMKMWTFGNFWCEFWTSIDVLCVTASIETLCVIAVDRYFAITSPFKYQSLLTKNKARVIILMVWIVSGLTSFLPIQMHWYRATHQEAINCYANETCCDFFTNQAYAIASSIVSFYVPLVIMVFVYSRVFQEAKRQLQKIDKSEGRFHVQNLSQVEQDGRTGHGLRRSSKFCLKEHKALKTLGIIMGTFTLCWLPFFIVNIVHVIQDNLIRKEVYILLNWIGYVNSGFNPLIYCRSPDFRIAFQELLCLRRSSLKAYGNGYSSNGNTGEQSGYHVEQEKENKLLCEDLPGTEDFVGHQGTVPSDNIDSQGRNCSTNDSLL
Kind of assay: Adrenergic β2 mediated cAMP production in H292 cells (AlphaScreen cAMP detection). Type of assay: cell-based. Particulars: for β2 Int Act: Intrinsic Activity, fraction relative to the maximum activity determined for formoterol; for EC50: cAMP production, 60 min at room temperature, 300 μM rolipram, read-out: β2 pEC50 (converted). The essentials:
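H292 cells, pretreated 10 min with rolipram (300 μM final), were exposed to agonist for 60 min at room temperature in HBSS/10 mM HEPES pH 7.4 with 1.6% DMSO. Lysate cAMP was read by AlphaScreen against a standard curve; four-parameter fits gave pEC50 and intrinsic activity as a fraction of the formoterol maximum.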
(In general: cAMP levels reflect the balance of adenylyl cyclase and phosphodiesterase activity.)

Structures can show the parent of a compound that is named as a salt.

Turning to `Cc1nc(-c2cccc(CCOCCC(=O)N(CCNCCc3ccc(O)c4c3OCC(=O)N4)C3CCCCC3)c2)cn1C` [Example 35, N-Cyclohexyl-3-(3-(1,2-dimethyl-1H-imidazol-4-yl)phenethoxy)-N-(2-(2-(5-hydroxy-3-oxo-3,4-dihydro-2H-benzo[b][1,4]oxazin-8-yl)ethylamino)ethyl)propanamide Trifluoroacetic Acid Salt], in assay [1], the IC50 is 2000 nM. Moreover, in assay [2], the “β2 Int Act” value is 1.03 and the EC50 is 12.6 nM.
The like results for `CCC[C@@H](C)N(CCNCCc1ccc(O)c2c1OCC(=O)N2)C(=O)CCOCCc1cccc(-c2cnn(C(C)C)c2)c1` [Example 21, (R)—N-(2-(2-(5-Hydroxy-3-oxo-3,4-dihydro-2H-benzo[b][1,4]oxazin-8-yl)ethylamino)ethyl)-3-(3-(1-isopropyl-1H-pyrazol-4-yl)phenethoxy)-N-(pentan-2-yl)propanamide Trifluoroacetic Acid Salt] were, in that order, 794 nM, 1.00 and 12.6 nM.
The like results for `Cn1cc(-c2cccc(CCOCCC(=O)N(CCNCCc3ccc(O)c4c3OCC(=O)N4)C3CCCCC3)c2)nn1` [Example 05, N-Cyclohexyl-N-(2-(2-(5-hydroxy-3-oxo-3,4-dihydro-2H-benzo[b][1,4]oxazin-8-yl)ethylamino)ethyl)-3-(3-(1-methyl-1H-1,2,3-triazol-4-yl)phenethoxy)propanamide Trifluoroacetic Acid Salt] were, in that order, 2000 nM, 0.87 and 7.94 nM.
With `CCn1cc(-c2cccc(CCOCCC(=O)N(CCNCCc3ccc(O)c4c3OCC(=O)N4)C3CCCC3)c2)cn1` [Example 24, N-Cyclopentyl-3-(3-(1-ethyl-1H-pyrazol-4-yl)phenethoxy)-N-(2-(2-(5-hydroxy-3-oxo-3,4-dihydro-2H-benzo[b][1,4]oxazin-8-yl)ethylamino)ethyl)propanamide Trifluoroacetic Acid Salt], the IC50 in assay [1] is 1260 nM. Besides, in assay [2], the “β2 Int Act” value stood at 0.95 and the EC50 is 7.94 nM.
With `CCn1cc(-c2cccc(CCOCCC(=O)N(CCNCCc3ccc(O)c4c3OCC(=O)N4)[C@H](C)C(C)(C)C)c2)cn1` [Example 25, (R)—N-(3,3-Dimethylbutan-2-yl)-3-(3-(1-ethyl-1H-pyrazol-4-yl)phenethoxy)-N-(2-(2-(5-hydroxy-3-oxo-3,4-dihydro-2H-benzo[b][1,4]oxazin-8-yl)ethylamino)ethyl)propanamide Trifluoroacetic Acid Salt], the IC50 in assay [1] was 316 nM. In assay [2], the “β2 Int Act” value stood at 0.90 and the EC50 is 12.6 nM.
